Results as given in patent US7262192B2, “Substituted pyrazolo[4,3-d]pyrimidines and their use as PDE-5 inhibitors” (Pfizer Inc., priority 2003, dated 2007).

Target: cGMP-specific PDE-5 (UniProt O76074)
Assay: PDE-5 inhibition, batch method or scintillation proximity assay
Format: biochemical, human
Settings: activity against PDE-5; representative preferred compounds
Text: The compounds of the invention are inhibitors of cyclic guanylate monophosphate (cGMP)-specific phosphodiesterase type 5 (PDE-5 inhibitors).
The required PDE enzymes can be isolated from a variety of sources, including human corpus cavernosum, human and rabbit platelets, human cardiac ventricle, human skeletal muscle and bovine retina, essentially by a modification of the method of Thompson, W J et al.; Biochemistry 18(23), 5228-5237, 1979, as described by Ballard S A et al.; J. Urology 159(6), 2164-2171, 1998. In particular, cGMP-specific PDE-5 and cGMP-inhibited cAMP PDE-3 can be obtained from human corpus cavernosum tissue, human platelets or rabbit platelets; cGMP-stimulated PDE-2 was obtained from human corpus cavernosum; calcium/calmodulin (Ca/CAM)-dependent PDE-1 from human cardiac ventricle; cAMP-specific PDE-4 from human skeletal muscle; and photoreceptor PDE-6 from bovine retina. Phosphodiesterases 7-11 can be generated from full length human recombinant clones transfected into SF9 cells.
Assays can be performed either using a modification of the “batch” method of Thompson W J and Appleman M M; Biochemistry 10(2),311-316, 1971, essentially as described by Ballard S A et al.; J. Urology 159(6), 2164-2171, 1998, or using a scintillation proximity assay for the direct detection of [^3H]-labelled AMP/GMP using a modification of the protocol described by Amersham plc under product code TRKQ7090/7100. In summary, for the scintillation proximity assay the effect of PDE inhibitors was investigated by assaying a fixed amount of enzyme in the presence of varying inhibitor concentrations and low substrate, (cGMP or cAMP in a 3:1 ratio unlabelled to [^3H]-labeled at a concentration of ˜⅓ Km or less) such that IC50≈Ki. The final assay volume was made up to 100 μL with assay buffer [20 mM Tris-HCl pH 7.4, 5 mM MgCl2, 1 mg/mL bovine serum albumin]. Reactions were initiated with enzyme, incubated for 30-60 min at 30° C. to give <30% substrate turnover and terminated with 50 μL silicate SPA beads (containing 3 mM of the respective unlabelled cyclic nucleotide for PDEs 9 and 11).

SMILES	IC50 [nM]
CCOCCn1nc(CC)c2nc(N(C)C3CCN(C)CC3)nc(Nc3ccncn3)c21 [Example 2]	0.5
CCOCCn1nc(C)c2nc(N3CCNC(C)C3)nc(Nc3ccncn3)c21 (stereo not shown) [Example 11]	0.31
CCOCCn1nc(CC)c2nc(N3CCNC(C)C3)nc(Nc3ccncn3)c21 (stereo not shown) [Example 15]	0.11
CCCOCCn1nc(C)c2nc(N3CCNC(C)C3)nc(Nc3ccncn3)c21 (stereo not shown) [Example 23]	0.47
CCOCCn1nc(C)c2nc(N3CC(C)NCC3C)nc(Nc3ccncn3)c21 (stereo not shown) [Example 138]	0.33
CCOCCn1nc(CC)c2nc(N3CC(C)NCC3C)nc(Nc3ccncn3)c21 (stereo not shown) [Example 141]	0.15
CCOCCn1nc(CC)c2nc(N(C)C3CCN(C)C3)nc(Nc3cc(C)ccn3)c21 (stereo not shown) [Example 162]	0.24
CCOCCn1nc(CO)c2nc(N(C)CC)nc(Nc3cc(C)ccn3)c21 [Example 181, [1-(2-Ethoxyethyl)-5-(N-ethyl-N-methylamino)-7-(4-methylpyridin-2-ylamino)-1H-pyrazolo[4,3-d]pyrimidin-3-yl]methanol]	0.41
CCOCCn1nc(COC)c2nc(N(C)C)nc(Nc3cc(C)ccn3)c21 [Example 185, 1-(2-Ethoxyethyl)-3-methoxymethyl-N^5,N^5-dimethyl-N^7-(4-methylpyridin-2-yl)-1H-pyrazolo[4,3-d]pyrimidine-5,7-diamine]	1.32
CCOCCn1nc(C)c2nc(N(C)[C@H]3CCN(C)C3)nc(Nc3ccncn3)c21 [Example 191, 1-(2-Ethoxyethyl)-N^5,3-dimethyl-N^5-[(3S)-1-methylpyrrolidin-3-yl]-N^7-pyrimidin-4-yl-1H-pyrazolo[4,3-d]pyrimidine-5,7-diamine]	2.4
CCOCCn1nc(COC)c2nc(N3CCN[C@H](C)C3)nc(Nc3cccc(C)n3)c21 [Example 211]	2.7
CCOCc1nn(CCOCC(F)(F)F)c2c(Nc3cccc(C)n3)nc(N3CCNC(C)C3)nc12 (stereo not shown) [Example 255]	1.43
CCOCc1nn(CCOCC(F)(F)F)c2c(Nc3cc(C)ccn3)nc(N3CCNC(C)C3)nc12 (stereo not shown) [Example 256]	3.89
